The record followed here is US6855730B2, “3-methylidenyl-2-indolinone modulators of protein kinase” (Sugen, Inc., priority 1998, dated 2005).

One experiment addresses T1, PDGFR-β (Homo sapiens, UniProt P09619).
T1 construct: host or cells: NIH 3T3
Briefly: Biochemical PDGFR assay (ELISA, PDGFR-β expressing NIH 3T3 cell lysate). The note with it: read-out: bio PDGF IC50. In short, it runs like this: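 PDGFR-β from NIH 3T3 cell lysate captured on anti-PDGFR (28D4C10)-coated plates; compound preincubated 30 min, then 20 μM ATP kinase reaction 30 min at room temperature, stopped with EDTA. Phosphotyrosine detected by anti-phosphotyrosine antibody, peroxidase conjugate and ABTS/H2O2, read at 410 nm.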

For experiment [1], the target named is Myc-GyrB-FGFR fusion protein (Homo sapiens, UniProt P11362). Briefly: Biochemical FGFR assay (ELISA). The note with it: read-out: bio fgfR1 IC50. Background: ELISA stands for enzyme-linked immunosorbent assay.
Sequence of Myc-GyrB-FGFR fusion protein (P11362 478-767 limits assumed): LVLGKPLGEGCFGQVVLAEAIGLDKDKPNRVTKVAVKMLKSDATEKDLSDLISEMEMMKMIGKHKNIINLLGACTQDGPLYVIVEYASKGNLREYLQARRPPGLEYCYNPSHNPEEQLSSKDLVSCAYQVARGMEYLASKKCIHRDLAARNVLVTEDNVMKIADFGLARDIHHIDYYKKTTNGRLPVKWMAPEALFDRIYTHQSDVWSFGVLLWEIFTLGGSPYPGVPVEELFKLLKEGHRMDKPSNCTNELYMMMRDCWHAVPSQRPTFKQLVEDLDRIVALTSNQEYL
For another experiment, the target named is T2, flkGST (Homo sapiens, UniProt P35968).
T2 construct: GST
T2 sequence (P35968 786-1356 limits assumed): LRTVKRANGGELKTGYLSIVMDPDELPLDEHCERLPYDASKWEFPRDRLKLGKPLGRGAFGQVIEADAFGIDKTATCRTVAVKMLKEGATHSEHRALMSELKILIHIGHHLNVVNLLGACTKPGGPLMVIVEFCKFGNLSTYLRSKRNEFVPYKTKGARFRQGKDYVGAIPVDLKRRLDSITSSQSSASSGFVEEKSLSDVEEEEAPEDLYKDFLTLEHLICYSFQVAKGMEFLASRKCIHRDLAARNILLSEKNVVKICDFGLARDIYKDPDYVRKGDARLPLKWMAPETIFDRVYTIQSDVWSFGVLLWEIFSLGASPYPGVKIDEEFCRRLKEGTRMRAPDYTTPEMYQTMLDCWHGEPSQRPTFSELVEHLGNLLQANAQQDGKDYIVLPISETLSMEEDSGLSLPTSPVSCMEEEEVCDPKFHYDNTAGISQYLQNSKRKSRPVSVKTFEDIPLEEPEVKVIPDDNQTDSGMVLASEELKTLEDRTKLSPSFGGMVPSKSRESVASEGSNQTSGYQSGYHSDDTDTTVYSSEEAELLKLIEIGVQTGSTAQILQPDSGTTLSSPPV
The experiment can be described thus: bio flkGST assay. The experiment is classed as biochemical.

The target of the next experiment is pyk2 (Homo sapiens, UniProt Q14289). The experiment can be described thus: bio pyk2 assay. It is filed as biochemical.
Sequence of pyk2 (Q14289 whole entry, species assumed): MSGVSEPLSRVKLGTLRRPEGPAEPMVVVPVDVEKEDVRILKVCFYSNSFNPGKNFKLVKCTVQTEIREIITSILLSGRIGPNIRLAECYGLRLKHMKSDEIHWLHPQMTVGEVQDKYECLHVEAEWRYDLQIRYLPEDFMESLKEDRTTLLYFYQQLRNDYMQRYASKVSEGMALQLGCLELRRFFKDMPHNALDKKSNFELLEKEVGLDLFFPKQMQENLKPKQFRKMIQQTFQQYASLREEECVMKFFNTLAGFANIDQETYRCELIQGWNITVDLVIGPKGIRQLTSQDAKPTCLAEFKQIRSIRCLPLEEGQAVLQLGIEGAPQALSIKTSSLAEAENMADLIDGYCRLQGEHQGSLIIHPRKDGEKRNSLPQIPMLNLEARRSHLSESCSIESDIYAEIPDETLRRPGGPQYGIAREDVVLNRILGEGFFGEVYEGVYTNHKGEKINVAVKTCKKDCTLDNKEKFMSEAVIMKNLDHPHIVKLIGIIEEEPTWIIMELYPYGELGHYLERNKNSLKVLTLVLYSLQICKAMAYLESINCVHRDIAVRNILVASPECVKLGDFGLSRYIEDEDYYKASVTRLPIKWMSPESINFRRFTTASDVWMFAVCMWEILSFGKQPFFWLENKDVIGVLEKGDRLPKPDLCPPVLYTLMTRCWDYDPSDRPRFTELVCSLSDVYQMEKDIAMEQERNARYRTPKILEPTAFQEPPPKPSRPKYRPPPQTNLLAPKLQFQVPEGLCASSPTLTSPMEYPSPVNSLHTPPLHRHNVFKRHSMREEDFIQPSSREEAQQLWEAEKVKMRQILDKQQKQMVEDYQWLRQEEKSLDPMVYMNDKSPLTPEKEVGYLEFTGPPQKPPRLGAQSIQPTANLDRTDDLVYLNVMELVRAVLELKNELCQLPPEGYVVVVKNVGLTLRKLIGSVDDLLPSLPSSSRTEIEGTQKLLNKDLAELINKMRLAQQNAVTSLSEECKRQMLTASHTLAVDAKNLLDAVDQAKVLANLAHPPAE
For another experiment, the target named is EGFR (Homo sapiens, UniProt P00533). The experiment can be described thus: Biochemical EGFR assay (ELISA, A431 cell lysate). The arrangement: A431 cell lysate (Screening Lab, SUGEN, Inc.); host or cells: A431. The note with it: read-out: bio EGFr IC50. A digest of the protocol: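 EGFR captured from A431 cell lysate onto anti-EGFR-coated plates, then incubated with test compound for 30 min at room temperature. Tyrosine phosphorylation with ATP/MnCl2 was stopped with EDTA after 5 min and detected by anti-phosphotyrosine ELISA with peroxidase/ABTS read-out.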
Sequence of EGFR (P00533 25-1210): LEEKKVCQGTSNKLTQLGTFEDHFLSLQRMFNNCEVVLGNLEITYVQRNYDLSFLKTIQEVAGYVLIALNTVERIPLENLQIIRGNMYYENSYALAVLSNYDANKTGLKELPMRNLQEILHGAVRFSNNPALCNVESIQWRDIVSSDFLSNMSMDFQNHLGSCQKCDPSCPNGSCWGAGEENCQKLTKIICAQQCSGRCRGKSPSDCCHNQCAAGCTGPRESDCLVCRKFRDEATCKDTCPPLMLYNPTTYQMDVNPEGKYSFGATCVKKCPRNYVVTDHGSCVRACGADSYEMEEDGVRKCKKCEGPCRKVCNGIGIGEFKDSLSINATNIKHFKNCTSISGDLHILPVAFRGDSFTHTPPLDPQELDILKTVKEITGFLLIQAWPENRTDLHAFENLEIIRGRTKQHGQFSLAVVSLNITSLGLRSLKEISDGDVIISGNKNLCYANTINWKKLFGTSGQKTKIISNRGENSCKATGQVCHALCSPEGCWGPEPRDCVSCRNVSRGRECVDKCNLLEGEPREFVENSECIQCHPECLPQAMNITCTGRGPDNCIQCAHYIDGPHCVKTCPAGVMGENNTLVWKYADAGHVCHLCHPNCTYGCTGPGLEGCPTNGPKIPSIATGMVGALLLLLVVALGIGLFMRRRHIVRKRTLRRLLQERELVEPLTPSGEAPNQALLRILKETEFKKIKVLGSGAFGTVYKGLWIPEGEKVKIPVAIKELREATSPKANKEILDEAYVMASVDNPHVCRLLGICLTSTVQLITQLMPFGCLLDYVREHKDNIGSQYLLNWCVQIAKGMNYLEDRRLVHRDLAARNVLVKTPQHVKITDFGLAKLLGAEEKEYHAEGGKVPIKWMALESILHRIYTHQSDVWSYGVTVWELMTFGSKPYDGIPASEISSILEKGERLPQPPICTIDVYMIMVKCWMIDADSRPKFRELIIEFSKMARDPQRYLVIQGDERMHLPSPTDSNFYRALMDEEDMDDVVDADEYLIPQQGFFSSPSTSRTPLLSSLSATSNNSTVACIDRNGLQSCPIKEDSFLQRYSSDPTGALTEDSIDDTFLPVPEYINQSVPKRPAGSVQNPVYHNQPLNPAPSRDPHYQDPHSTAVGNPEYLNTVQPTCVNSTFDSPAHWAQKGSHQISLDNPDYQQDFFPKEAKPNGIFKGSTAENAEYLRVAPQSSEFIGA

The term IC50 denotes the concentration needed to halve the response being measured.

Each structure is given as a SMILES string.

T1 sequence (P09619 33-1106): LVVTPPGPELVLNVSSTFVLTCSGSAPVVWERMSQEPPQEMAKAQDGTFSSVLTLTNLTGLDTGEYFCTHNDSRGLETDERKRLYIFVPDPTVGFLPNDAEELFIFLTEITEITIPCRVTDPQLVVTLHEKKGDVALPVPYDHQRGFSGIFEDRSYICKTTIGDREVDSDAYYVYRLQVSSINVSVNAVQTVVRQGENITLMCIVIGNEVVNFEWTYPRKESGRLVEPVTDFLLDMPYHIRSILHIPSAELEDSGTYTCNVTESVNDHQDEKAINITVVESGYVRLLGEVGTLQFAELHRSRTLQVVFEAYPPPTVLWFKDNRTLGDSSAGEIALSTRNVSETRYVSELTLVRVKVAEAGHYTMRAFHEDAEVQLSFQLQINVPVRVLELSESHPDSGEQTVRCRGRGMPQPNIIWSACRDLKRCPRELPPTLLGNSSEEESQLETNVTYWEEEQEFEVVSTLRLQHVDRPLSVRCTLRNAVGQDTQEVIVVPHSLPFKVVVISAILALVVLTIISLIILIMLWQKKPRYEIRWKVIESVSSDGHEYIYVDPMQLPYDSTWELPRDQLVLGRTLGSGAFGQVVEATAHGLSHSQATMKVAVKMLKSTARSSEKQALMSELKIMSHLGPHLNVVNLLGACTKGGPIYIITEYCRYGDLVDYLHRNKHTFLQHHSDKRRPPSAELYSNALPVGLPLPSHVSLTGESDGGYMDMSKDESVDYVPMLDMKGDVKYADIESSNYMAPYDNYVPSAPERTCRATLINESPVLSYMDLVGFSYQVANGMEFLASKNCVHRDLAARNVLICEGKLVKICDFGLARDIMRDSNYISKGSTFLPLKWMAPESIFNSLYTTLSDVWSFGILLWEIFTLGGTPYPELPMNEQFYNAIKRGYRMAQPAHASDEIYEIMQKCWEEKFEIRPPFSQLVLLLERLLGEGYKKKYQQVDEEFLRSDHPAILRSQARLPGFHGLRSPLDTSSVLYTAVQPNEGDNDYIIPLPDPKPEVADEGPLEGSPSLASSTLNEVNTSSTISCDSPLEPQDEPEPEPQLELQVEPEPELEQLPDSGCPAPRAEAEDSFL

`CNS(=O)(=O)c1ccc2c(c1)/C(=C/c1c(C)[nH]c3ccccc13)C(=O)N2` [Compound 181, 3-(2-Methyl-1H-indol-3-ylmethylene)-2-oxo-2,3-dihydro-1H-indole 5-sulfonic acid methylamide]: the IC50 at PDGFR-β was more than 100 µM; in experiment [1], 5.74 µM; against flkGST, 12.5 µM; on pyk2, more than 100 µM.
Consider `CCOC(=O)c1c(C)[nH]c(/C=C2\C(=O)Nc3ccc(S(N)(=O)=O)cc32)c1CCCN1CCOCC1` [Example 123, 2-Methyl-4-(3-morpholin-4-ylpropyl)-5-(2-oxo-5-sulfamoyl-1,2-dihydroindol-3-ylidenemethyl)-1H-pyrrole-3-carboxylic acid ethyl ester], for which the IC50 on PDGFR-β came out at 15.2 µM; at flkGST, 16.9 µM; at pyk2, 4.71 µM.
With `CCOC(=O)c1c(C)[nH]c(/C=C2\C(=O)Nc3ccc(S(N)(=O)=O)cc32)c1CCCN1CCN(C)CC1` [Example 124, 2-Methyl-4-[3-(4-methylpiperazin-1-yl)-propyl]-5-(2-oxo-5-sulfamoyl-1,2-dihydroindol-3ylidenemethyl)-1H-pyrrole-3-carboxylic acid ethyl ester], the IC50 at PDGFR-β came out at 33.9 µM; against flkGST it was 13.9 µM; on pyk2 it was 4.21 µM.
Turning to `CCOC(=O)c1c(C)[nH]c(/C=C2\C(=O)Nc3cccc(CCO)c32)c1CCCN1CCN(C)CC1` [Example 136, 5-[4-(2-Hydroxyethyl)-2-oxo-1,2-dihydroindol-3-ylidenemethyl]-2-methyl-4-[3-(4methylpiperazin-1-yl)-propyl]-1H-pyrrole-3-carboxylic acid ethyl ester], the IC50 at PDGFR-β stood at 27 µM; against flkGST, 0.56 µM; at pyk2, 2.77 µM.
`CCOC(=O)c1c(C)[nH]c(/C=C2\C(=O)Nc3ccc(S(=O)(=O)NC)cc32)c1CCCN(C)C` [Example 137]: the IC50 at PDGFR-β is 6.17 µM; against flkGST, 7.54 µM; against pyk2, more than 10 µM; on EGFR, more than 100 µM.
As for `CNS(=O)(=O)c1ccc2c(c1)/C(=C/c1[nH]c(C)c(C(=O)O)c1CCCN(C)C)C(=O)N2` [Example 138, 4-(3-Dimethylaminopropyl)-2-methyl-5-(5-methylsulfamoyl-2-oxo-1,2-dihydroindol-3-ylidenemethyl)-1H-pyrrole-3-carboxylic acid], the IC50 was 26.2 µM on PDGFR-β, 17.6 µM against flkGST, 2.18 µM against pyk2 and more than 100 µM at EGFR.
On to `CNS(=O)(=O)c1ccc2c(c1)/C(=C/c1[nH]c3ccccc3c1CCCN(C)C)C(=O)N2` [Example 149, 3-[3-(3-Dimethylaminopropyl)-1H-indol-2-ylmethylene]-2-oxo-2,3-dihydro-1H-indole-5-sulfonic acid methylamide], for which the 50% inhibitory concentration (IC50) at PDGFR-β was 5.26 µM; in experiment [1] it was 0.77 µM; against flkGST, 2.66 µM; at pyk2 it was 5.02 µM.
`CN(C)CCCc1c(/C=C2\C(=O)Nc3cccc(CCO)c32)[nH]c2ccccc12` [Example 150, 3-[3-(3-Dimethylaminopropyl)-1H-indol-2-ylmethylene]-4-(2-hydroxyethyl)-1,3-dihydroindol-2-one]: the IC50 on PDGFR-β is 0.34 µM; at flkGST it was 0.2 µM; on pyk2, 0.01 µM.
For the molecule `CC(=O)c1ccc2c(c1)C(=Cc1cc3ccccc3[nH]1)C(=O)N2` [Example 158, 5-Acetyl-3-(1H-indol-2-ylmethylene)-1,3-dihydro-indol-2-one], the IC50 on PDGFR-β was 18 µM; in experiment [1], more than 20 µM; on flkGST, 0.26 µM; at pyk2, 12.3 µM.
In the case of `Cc1c(/C=C2\C(=O)Nc3ccc(S(N)(=O)=O)cc32)[nH]c2ccccc12` [Example 175, 3-(3-Methyl-1H-indol-2-ylmethylene)-2-oxo-2,3-dihydro-1H-indole-5-sulfonic acid amide], the IC50 at PDGFR-β was found to be 55.4 µM; in experiment [1] it was 0.73 µM; at flkGST it was 1.51 µM; on pyk2 it was 5.53 µM.
`CNS(=O)(=O)c1ccc2c(c1)/C(=C/c1ccc3[nH]ccc3c1)C(=O)N2` [Example 176, 3-(1H-Indol-5-ylmethylene)-2-oxo-2,3-dihydro-1H-indole-5-sulfonic acid methylamide]: the IC50 is 79.2 µM on PDGFR-β, 0.75 µM in experiment [1], 2.08 µM at flkGST and 66.1 µM on pyk2.
The matching figures for `CNS(=O)(=O)c1ccc2c(c1)/C(=C/c1c[nH]c3ccccc13)C(=O)N2` [Example 178, 3-(1H-Indol-3-ylmethylene)-2-oxo-2,3-dihydro-1H-indole-5-sulfonic acid methylamide]: more than 100 µM, 3.23 µM, more than 20 µM and 57.1 µM.
The matching figures for `CN(C)S(=O)(=O)c1ccc2c(c1)/C(=C/c1ccc3[nH]ccc3c1)C(=O)N2` [Example 183, 3-(1H-Indol-5-ylmethylene)-2-oxo-2,3-dihydro-1H-indole-5-sulfonic acid dimethylamide]: more than 100 µM, 7.68 µM, 1.55 µM and more than 100 µM.
`Cc1[nH]c2ccccc2c1/C=C1\C(=O)Nc2ccc(S(=O)(=O)N(C)C)cc21` [Example 184, 3-(2-Methyl-1H-indol-3-ylmethylene)-2-oxo-2,3-dihydro-1H-indole-5-sulfonic acid dimethylamide]: the IC50 is more than 100 µM on PDGFR-β, 8.6 µM in experiment [1], more than 20 µM against flkGST and more than 100 µM at pyk2.
For `NS(=O)(=O)c1ccc2c(c1)/C(=C/c1ccc3[nH]ccc3c1)C(=O)N2` [Example 185, 3-(1H-Indol-5-ylmethylene)-2-oxo-2,3-dihydro-1H-indole-5-sulfonic acid amide], the IC50 on PDGFR-β is more than 100 µM; in experiment [1], 9.43 µM; against flkGST it was 3.39 µM; against pyk2, more than 100 µM.
On to `CN(C)S(=O)(=O)c1ccc2c(c1)/C(=C/c1cc3ccccc3[nH]1)C(=O)N2` [Example 186, 3-(1H-Indol-2-ylmethylene)-2-oxo-2,3-dihydro-1H-indole-5-sulfonic acid dimethylamide], for which the IC50 on PDGFR-β is more than 100 µM; in experiment [1], 10.4 µM; at flkGST it was 6.12 µM; at pyk2 it was more than 100 µM.
As for `CN(C)S(=O)(=O)c1ccc2c(c1)/C(=C/c1c[nH]c3ccccc13)C(=O)N2` [Example 188, 3-(1H-Indol-3-ylmethylene)-2-oxo-2,3-dihydro-1H-indole-5-sulfonic acid dimethylamide], the IC50 at PDGFR-β was more than 100 µM; in experiment [1], 17.5 µM; against flkGST, more than 20 µM; at pyk2, 66.4 µM.
With `Cc1[nH]c2ccccc2c1/C=C1\C(=O)Nc2ccc(S(N)(=O)=O)cc21` [Example 189, 3-(2-Methyl-1H-indol-3-ylmethylene)-2-oxo-2,3-dihydro-1H-indole-5-sulfonic acid amide], the IC50 was more than 100 µM on PDGFR-β, more than 20 µM in experiment [1], more than 20 µM against flkGST and more than 100 µM against pyk2.
